Measurements published in patent publication US8952024B2, “Herbicidal pyrimidone derivatives” (E I du Pont de Nemours and Company, priority 2009, dated 2015).

Columns and labels:
Format in all cases: in vivo
[1] = tested on: Surinam grass (Brachiaria decumbens); assay: Test B pre-/postemergence plant response
Outline: (§1)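 Response scores were assigned visually after 13 to 15 days in a greenhouse, comparing treated pots with controls on a 0–100 scale where 100 denotes complete control. Preemergence treatments went onto freshly seeded loam/sand soil; postemergence treatments onto plants 2 to 18 cm tall.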

[2] = tested on: blackgrass (Alopecurus myosuroides); assay: Test B pre-/postemergence plant response
Outline: as §1

[3] = tested on: cocklebur (Xanthium strumarium); assay: Test B pre-/postemergence plant response
Outline: as §1

[4] = tested on: kochia (Kochia scoparia); assay: Test B pre-/postemergence plant response
Outline: as §1

[5] = tested on: lambsquarters (Chenopodium album); assay: Test B pre-/postemergence plant response
Outline: as §1

[6] = tested on: pigweed (Amaranthus retroflexus); assay: Test B pre-/postemergence plant response
Outline: as §1

[7] = tested on: soybean (Glycine max); assay: Test B pre-/postemergence plant response
Outline: as §1

[8] = tested on: velvetleaf (Abutilon theophrasti); assay: Test B pre-/postemergence plant response
Outline: as §1

[9] = tested on: wheat (Triticum aestivum); assay: Test B pre-/postemergence plant response
Outline: as §1

[10] = tested on: wild oat (Avena fatua); assay: Test B pre-/postemergence plant response
Outline: as §1

[11] = tested on: canarygrass (Phalaris minor); assay: Test B postemergence plant response
Outline: (§2)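 Plants at the 1- to 4-leaf stage (2 to 18 cm tall), grown in pots of peat moss/vermiculite medium with wetting agent and starter nutrients, received postemergence applications of test chemicals. After 13 to 15 days in a greenhouse, injury was rated visually against untreated controls on a 0 (no effect) to 100 (complete control) scale.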

[12] = tested on: chickweed (Stellaria media); assay: Test B postemergence plant response
Outline: as §2

[13] = tested on: windgrass (Apera spica-venti); assay: Test B postemergence plant response; details: for Plant response rating, Windgrass: Postemergence
Outline: as §2

[14] = 62 g ai/ha, postemergence, 0 is no effect, 100 is complete control, 13 to 15 days
[15] = Postemergence, 31 g ai/ha, 0 to 100 scale (0 no effect, 100 complete control)
[16] = Postemergence, 125 g ai/ha, scale 0 to 100 (0 no effect, 100 complete control)
[17] = Postemergence, 250 g ai/ha, scale 0 to 100 (0 no effect, 100 complete control), 13 to 15 days
[18] = 250 g ai/ha, Preemergence, 0 to 100 scale
[19] = Postemergence, 62 g ai/ha, scale 0 (no effect) to 100 (complete control), 13 to 15 days
[20] = Postemergence, 125 g ai/ha, visual rating after 13 to 15 days, scale 0 (no effect) to 100 (complete control)
[21] = Preemergence, 31 g ai/ha, scale 0 to 100 (0 no effect, 100 complete control)
[22] = Preemergence, 125 g ai/ha, 0 to 100 scale
[23] = Postemergence, 31 g ai/ha, scale 0 to 100 (0 no effect, 100 complete control)
[24] = Postemergence, 250 g ai/ha, scale 0 to 100
[25] = Preemergence, 62 g ai/ha, scale 0 to 100 (0 no effect, 100 complete control)

COCCCn1c(-c2cccc(Br)c2)ncc(C(=O)C2=C(O)CCCC2=O)c1=O [Compound 140]
95: Plant response rating, Cocklebur [3, 17]
10: Kochia plant response rating (0 to 100 scale) [4, 14] | Plant response rating, Kochia [4, 16] | Plant response rating, Soybean [7, 15] | Plant response rating, Wheat [9, 16] | Plant response rating, Oat, Wild [10, 16] | Chickweed plant response rating (0 to 100 scale) [12, 14]
85: Plant response rating, Velvetleaf [8, 17]
0: Blackgrass plant response rating (0 to 100 scale) [2, 14] | Plant response rating, Blackgrass [2, 15] | Plant response rating, Cocklebur [3, 15] | Plant response rating, Kochia [4, 15] | Plant response rating, Oat, Wild [10, 15] | Canarygrass plant response rating (0 to 100 scale) [11, 14] | Plant response rating, Canarygrass [11, 15] | Plant response rating, Chickweed [12, 15] | Plant response rating, Windgrass ([13]; 31 g ai/ha, 0 to 100 scale (0 no effect, 100 complete control))
55: Plant response rating, Surinam Grass [1, 16] | Plant response rating, Pigweed [6, 15]
98: Plant response rating, Pigweed [6, 17]
40: Plant response rating, Oat, Wild [10, 17]
45: Plant response rating, Lambsquarters [5, 15] | Plant response rating, Chickweed [12, 16]
80: Plant response rating, Lambsquarters [5, 17] | Plant response rating, Soybean [7, 17] | Plant response rating, Velvetleaf [8, 16]
30: Plant response rating, Windgrass ([13]; 250 g ai/ha, scale 0 to 100 (0 no effect, 100 complete control), 13 to 15 days)
70: Pigweed plant response rating (0 to 100 scale) [6, 14]
65: Plant response rating, Surinam Grass [1, 17] | Plant response rating, Cocklebur [3, 16] | Velvetleaf plant response rating (0 to 100 scale) [8, 14]
60: Lambsquarters plant response rating (0 to 100 scale) [5, 14] | Soybean plant response rating (0 to 100 scale) [7, 14]
75: Plant response rating, Lambsquarters [5, 16] | Plant response rating, Pigweed [6, 16] | Plant response rating, Soybean [7, 16] | Plant response rating, Chickweed [12, 17]
50: Surinam Grass plant response rating (0 to 100 scale) [1, 14] | Plant response rating, Surinam Grass [1, 15] | Plant response rating, Velvetleaf [8, 15]
5: Plant response rating, Blackgrass [2, 16] | Plant response rating, Blackgrass [2, 17] | Wheat plant response rating (0 to 100 scale) [9, 14] | Plant response rating, Wheat [9, 15] | Oat, Wild plant response rating (0 to 100 scale) [10, 14] | Plant response rating, Canarygrass [11, 16] | Plant response rating, Canarygrass [11, 17] | Windgrass plant response rating (0 to 100 scale) [13, 14] | Plant response rating, Windgrass ([13]; 125 g ai/ha, scale 0 to 100 (0 no effect, 100 complete control))
15: Cocklebur plant response rating (0 to 100 scale) [3, 14] | Plant response rating, Wheat [9, 17]
35: Plant response rating, Kochia [4, 17]

O=C1CCCC(O)=C1C(=O)c1cnc(-c2ccccc2)n(-c2cccc(Br)c2)c1=O [Compound 38]
75: Plant response rating, Soybean [7, 18] | Plant response rating, Oat, Wild [10, 19]
15: Plant response rating, Blackgrass [2, 19] | Plant response rating, Blackgrass [2, 20]
98: Plant response rating, Lambsquarters [5, 21] | Plant response rating, Lambsquarters [5, 25] | Plant response rating, Pigweed [6, 19] | Plant response rating, Pigweed [6, 20] | Velvetleaf plant response rating [8, 22]
80: Plant response rating, Surinam Grass [1, 18] | Plant response rating, Kochia [4, 19] | Plant response rating, Oat, Wild [10, 20] | Plant response rating, Windgrass ([13]; 62 g ai/ha, scale 0 (no effect) to 100 (complete control), 13 to 15 days)
95: Plant response rating, Lambsquarters [5, 19]
55: Plant response rating, Velvetleaf [8, 21]
100: Plant response rating, Kochia [4, 20] | Kochia plant response rating [4, 24] | Plant response rating, Lambsquarters [5, 18] | Plant response rating, Lambsquarters [5, 20] | Lambsquarters plant response rating [5, 24] | Lambsquarters plant response rating [5, 22] | Plant response rating, Pigweed [6, 18] | Plant response rating, Pigweed [6, 21] | Pigweed plant response rating [6, 22] | Plant response rating, Velvetleaf [8, 18] | Plant response rating, Velvetleaf [8, 19] | Plant response rating, Velvetleaf [8, 20] | Plant response rating, Chickweed [12, 20] | Chickweed plant response rating [12, 24]
30: Blackgrass plant response rating [2, 22]
45: Canarygrass plant response rating [11, 24]
90: Plant response rating, Surinam Grass [1, 20] | Plant response rating, Cocklebur [3, 18] | Plant response rating, Soybean [7, 20] | Plant response rating, Chickweed [12, 19]
10: Plant response rating, Cocklebur [3, 25] | Plant response rating, Canarygrass [11, 23] | Plant response rating, Canarygrass [11, 19] | Plant response rating, Canarygrass [11, 20]
65: Surinam Grass plant response rating [1, 22]
40: Plant response rating, Surinam Grass [1, 21] | Plant response rating, Blackgrass [2, 18] | Blackgrass plant response rating [2, 24] | Plant response rating, Wheat [9, 20]
5: Plant response rating, Blackgrass [2, 23] | Plant response rating, Blackgrass [2, 25] | Plant response rating, Wheat [9, 18]
0: Plant response rating, Blackgrass [2, 21] | Plant response rating, Cocklebur [3, 21] | Plant response rating, Soybean [7, 21] | Soybean plant response rating [7, 22] | Plant response rating, Wheat [9, 21] | Wheat plant response rating [9, 22] | Plant response rating, Oat, Wild [10, 21] | Oat, Wild plant response rating [10, 22]
20: Plant response rating, Wheat [9, 19] | Plant response rating, Oat, Wild [10, 18]
25: Cocklebur plant response rating [3, 22]
85: Plant response rating, Surinam Grass [1, 19] | Plant response rating, Soybean [7, 19] | Plant response rating, Chickweed [12, 23] | Plant response rating, Windgrass ([13]; 125 g ai/ha, visual rating after 13 to 15 days, scale 0 (no effect) to 100 (complete control))
